Inconclusive results and toxic doses are left out. Rule as the data show it: active = T/C of 150% or more; inactive = T/C below 125%.
Tested on: L1210 leukemia ip in BDF1 mice, survival T/C
Assay: NCI In Vivo Anticancer Drug Screen. Data for tumor model L1210 Leukemia (intraperitoneal) in B6D2F1 (BDF1) mice
Conditions: endpoint: mean survival time, higher = longer survival
Outline: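 In this screen, tumor-bearing mice given compound are compared to those given vehicle, and their survival values are reported as a treated-to-control quotient.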

[1] = dose: 25.0 mg/kg/injection, schedule: Q01DX009 (ip), vehicle: Klucel (hydroxypropylcellulose) (HPC)
[2] = dose: 50.0 mg/kg/injection, schedule: Q01DX009 (ip), vehicle: Klucel (hydroxypropylcellulose) (HPC)
[3] = dose: 100.0 mg/kg/injection, schedule: Q04DX003 (ip), vehicle: Klucel (hydroxypropylcellulose) (HPC)
[4] = dose: 200.0 mg/kg/injection, schedule: Q04DX003 (ip), vehicle: Klucel (hydroxypropylcellulose) (HPC)
[5] = dose: 100.0 mg/kg/injection, schedule: Q01DX009 (ip), vehicle: saline with Tween-80
[6] = dose: 200.0 mg/kg/injection, schedule: Q01DX009 (ip), vehicle: saline with Tween-80
[7] = dose: 100.0 mg/kg/injection, schedule: Q04DX003 (ip), vehicle: saline
[8] = dose: 200.0 mg/kg/injection, schedule: Q04DX003 (ip), vehicle: saline
[9] = dose: 400.0 mg/kg/injection, schedule: Q01DX001 (ip), vehicle: carboxymethylcellulose (CMC)
[10] = dose: 100.0 mg/kg/injection, schedule: Q04DX002 (ip), vehicle: Klucel (hydroxypropylcellulose) (HPC)
[11] = dose: 200.0 mg/kg/injection, schedule: Q04DX002 (ip), vehicle: Klucel (hydroxypropylcellulose) (HPC)
[12] = dose: 100.0 mg/kg/injection, schedule: Q01DX001 (ip), vehicle: saline with Tween-80
[13] = dose: 200.0 mg/kg/injection, schedule: Q01DX001 (ip), vehicle: saline with Tween-80
[14] = dose: 400.0 mg/kg/injection, schedule: Q04DX002 (ip), vehicle: Klucel (hydroxypropylcellulose) (HPC)
[15] = dose: 100.0 mg/kg/injection, schedule: Q01DX009 (ip), vehicle: Klucel (hydroxypropylcellulose) (HPC)

Measured: T/C

CC(=O)OC1=C(C)CCCC(C)(C)C1
inactive: dose: 75.0 mg/kg/injection, schedule: Q01DX001 (ip), vehicle: other 92 % of control | dose: 150.0 mg/kg/injection, schedule: Q01DX001 (ip), vehicle: other 92 % of control | dose: 300.0 mg/kg/injection, schedule: Q01DX001 (ip), vehicle: other 97 % of control

CCCN=C(N)N=C(N)N
inactive: dose: 50.0 mg/kg/injection, schedule: Q01DX009 (ip), vehicle: water 108 % of control | dose: 100.0 mg/kg/injection, schedule: Q01DX001 (ip), vehicle: water 102 % of control | dose: 100.0 mg/kg/injection, schedule: Q01DX009 (ip), vehicle: water 95 % of control | dose: 100.0 mg/kg/injection, schedule: Q04DX003 (ip), vehicle: water 104 % of control | dose: 200.0 mg/kg/injection, schedule: Q01DX001 (ip), vehicle: water 102 % of control | dose: 200.0 mg/kg/injection, schedule: Q04DX003 (ip), vehicle: water 102 % of control | dose: 400.0 mg/kg/injection, schedule: Q01DX001 (ip), vehicle: water 102 % of control

CCCCCCC1CCC(O)C1CCCCCCC(=O)O (configuration not stated)
inactive: dose: 50.0 mg/kg/injection, schedule: Q04DX002 (ip), vehicle: saline 98 % of control | dose: 100.0 mg/kg/injection, schedule: Q04DX002 (ip), vehicle: saline 91 % of control | dose: 200.0 mg/kg/injection, schedule: Q04DX002 (ip), vehicle: saline 91 % of control

O=Cc1ccc[nH]1
inactive: dose: 100.0 mg/kg/injection, schedule: Q04DX003 (ip), vehicle: other 93 % of control | dose: 200.0 mg/kg/injection, schedule: Q04DX003 (ip), vehicle: other 96 % of control | dose: 400.0 mg/kg/injection, schedule: Q04DX003 (ip), vehicle: other 110 % of control

Clc1nc2nc(C(Cl)(Cl)Cl)[nH]c2nc1Cl
inactive: dose: 6.25 mg/kg/injection, schedule: Q01DX009 (ip), vehicle: Klucel (hydroxypropylcellulose) (HPC) 103 % of control | dose: 12.5 mg/kg/injection, schedule: Q01DX009 (ip), vehicle: Klucel (hydroxypropylcellulose) (HPC) 102 % of control | [1] 115 % of control | [2] 105 % of control | [3] 97 % of control | [4] 100 % of control

C=C(C)c1cc2ccccc2cc1O
inactive: [5] 98 % of control | dose: 100.0 mg/kg/injection, schedule: Q04DX003 (ip), vehicle: saline with Tween-80 90 % of control | [6] 100 % of control | dose: 200.0 mg/kg/injection, schedule: Q04DX003 (ip), vehicle: saline with Tween-80 94 % of control | dose: 400.0 mg/kg/injection, schedule: Q01DX009 (ip), vehicle: saline with Tween-80 98 % of control | dose: 400.0 mg/kg/injection, schedule: Q04DX003 (ip), vehicle: saline with Tween-80 92 % of control

O=C(C[N+]12CCC(O)C1C(CO)CC2)c1ccc(Br)cc1 (configuration not stated)
inactive: [7] 96 % of control | [8] 89 % of control

Cc1ccc(C2=NN(c3ccccc3)C(c3ccccc3)C2NC2CCCCC2)cc1 (configuration not stated)
inactive: dose: 100.0 mg/kg/injection, schedule: Q01DX009 (ip), vehicle: acetone 86 % of control | dose: 400.0 mg/kg/injection, schedule: Q01DX009 (ip), vehicle: acetone 100 % of control

CC1OC(n2ccc(NC(=O)c3ccc(NC(=O)C(C)(N)CO)cc3)nc2=O)CCC1OC1OC(C)C(N(C)C)C(O)C1O (configuration not stated)
inactive: dose: 100.0 mg/kg/injection, schedule: Q01DX001 (ip), vehicle: carboxymethylcellulose (CMC) 106 % of control | dose: 200.0 mg/kg/injection, schedule: Q01DX001 (ip), vehicle: carboxymethylcellulose (CMC) 100 % of control | [9] 106 % of control

O=S(=O)(CCCl)Cc1ccc(Cl)cc1
inactive: [10] 104 % of control | [11] 93 % of control

CCCC(OC(C)=O)C(C)[N+](=O)[O-] (configuration not stated)
inactive: dose: 50.0 mg/kg/injection, schedule: Q01DX001 (ip), vehicle: saline with Tween-80 96 % of control | [12] 92 % of control | [13] 103 % of control

O=C(O)c1cc(I)cc(Br)c1I
inactive: [10] 102 % of control | [11] 110 % of control | [14] 105 % of control

CC(C)(C)NC(=O)NCc1ccccc1Cl
inactive: [10] 96 % of control | [11] 96 % of control | [14] 100 % of control

CS(=O)(=O)OCCN(CCOS(C)(=O)=O)c1ccc(C=Nc2cccc(C(=O)O)c2)cc1
inactive: dose: 2.5 mg/kg/injection, schedule: Q04DX003 (ip), vehicle: Klucel (hydroxypropylcellulose) (HPC) 111 % of control | dose: 5.0 mg/kg/injection, schedule: Q04DX003 (ip), vehicle: Klucel (hydroxypropylcellulose) (HPC) 120 % of control | dose: 80.0 mg/kg/injection, schedule: Q04DX003 (ip), vehicle: Klucel (hydroxypropylcellulose) (HPC) 91 % of control

CN1CCC(OC(=O)C(F)(c2ccccc2)c2ccccc2)CC1
inactive: dose: 20.0 mg/kg/injection, schedule: Q01DX001 (ip), vehicle: saline 98 % of control

CCOC(=O)c1c(O)csc1C
inactive: [15] 93 % of control | [3] 98 % of control | dose: 200.0 mg/kg/injection, schedule: Q01DX009 (ip), vehicle: Klucel (hydroxypropylcellulose) (HPC) 90 % of control | [4] 101 % of control | dose: 400.0 mg/kg/injection, schedule: Q01DX009 (ip), vehicle: Klucel (hydroxypropylcellulose) (HPC) 109 % of control | dose: 400.0 mg/kg/injection, schedule: Q04DX003 (ip), vehicle: Klucel (hydroxypropylcellulose) (HPC) 97 % of control

COc1cc(OC)c(/C=C/c2cc3c4ccccc4ccc3[n+](C)c2)c(OC)c1
inactive: dose: 6.25 mg/kg/injection, schedule: Q01DX001 (ip), vehicle: saline with Tween-80 104 % of control | dose: 12.5 mg/kg/injection, schedule: Q01DX001 (ip), vehicle: saline with Tween-80 107 % of control

COc1ccc(OC)c2c1CCCC21OCCO1
inactive: dose: 50.0 mg/kg/injection, schedule: Q01DX009 (ip), vehicle: saline with Tween-80 105 % of control | [12] 95 % of control | [5] 102 % of control | [13] 96 % of control | [6] 100 % of control

COc1ccc(/C=C(/c2ccccc2)[N+](=O)[O-])cc1
inactive: dose: 176.0 mg/kg/injection, schedule: Q01DX001 (ip), vehicle: carboxymethylcellulose (CMC) 102 % of control | dose: 264.0 mg/kg/injection, schedule: Q01DX001 (ip), vehicle: carboxymethylcellulose (CMC) 89 % of control | [9] 89 % of control | dose: 600.0 mg/kg/injection, schedule: Q01DX001 (ip), vehicle: carboxymethylcellulose (CMC) 89 % of control

O=C(Nc1ccc(S(=O)(=O)NC2CCCCC2)cc1)Oc1ccccc1C(=O)O
inactive: dose: 100.0 mg/kg/injection, schedule: Q01DX001 (ip), vehicle: saline 100 % of control | dose: 200.0 mg/kg/injection, schedule: Q01DX001 (ip), vehicle: saline 91 % of control | dose: 400.0 mg/kg/injection, schedule: Q01DX001 (ip), vehicle: saline 100 % of control

COC(=O)/C=C/C=C/c1ccc(Br)cc1
inactive: [7] 91 % of control | [8] 92 % of control | dose: 400.0 mg/kg/injection, schedule: Q04DX003 (ip), vehicle: saline 92 % of control

COc1cc2c(cc1OC)C1CCN3CCCC3N1CC2 (configuration not stated)
inactive: [1] 102 % of control | [2] 96 % of control | [15] 98 % of control | [3] 96 % of control

— PubChem BioAssay AID248 (DTP/NCI, 2004)
